Reference: the supplement of paper PMC4862054

Columns and labels:
Conditions in all cases: incubation time: 72 h
[1] = system: CAL-51; assay: normalised response (% of control), CellTiter-Glo; higher = more viable cells (100 = DMSO, 0 = benzethonium chloride kill control)
Procedure, shortened: (§1)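 Every value is a normalised signal taken at one concentration of a dilution series. Compound was placed in 384-well plates at 5 concentrations in 10-fold steps over a compound-specific 10,000-fold range, and 20 µl of breast cancer cell suspension was seeded onto it. After 72 h, CellTox Green fluorescence (485/520 nm) was measured first and CellTiter-Glo luminescence second, following 10 min at room temperature. Each plate was scaled to 0.1 % DMSO (100) and a positive kill control (0).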

[2] = system: DU-4475; assay: as above
Procedure, shortened: as §1

[3] = system: MDA-MB-468; assay: as above
Procedure, shortened: as §1

[4] = system: Hs578T; assay: as above
Procedure, shortened: as §1

[5] = system: HCC1599; assay: as above
Procedure, shortened: as §1

[6] = system: MFM-223; assay: as above
Procedure, shortened: as §1

[7] = system: HCC1143; assay: as above
Procedure, shortened: as §1

[8] = system: MDA-MB-231; assay: as above
Procedure, shortened: as §1

[9] = system: CAL-120; assay: as above
Procedure, shortened: as §1

[10] = system: CAL-85-1; assay: as above
Procedure, shortened: as §1

[11] = system: SK-BR-3; assay: as above
Procedure, shortened: as §1

[12] = system: BT-549; assay: as above
Procedure, shortened: as §1

[13] = system: HCC1937; assay: as above
Procedure, shortened: as §1

[14] = system: BT-474; assay: as above
Procedure, shortened: as §1

[15] = system: CAL-148; assay: as above
Procedure, shortened: as §1

[16] = system: MDA-MB-453; assay: as above
Procedure, shortened: as §1

[17] = system: HDQ-P1; assay: as above
Procedure, shortened: as §1

[18] = system: MDA-MB-436; assay: as above
Procedure, shortened: as §1

[19] = system: MCF-10A; assay: as above
Procedure, shortened: as §1

[20] = system: CAL-51; assay: normalised viability (% of control), CellTiter-Blue; higher = more viable cells (100 = DMSO, 0 = benzethonium chloride kill control)
Protocol: (§2)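 DSRT, CellTiter-Blue viability, 72 h incubation. Signal is normalised to DMSO and benzethonium chloride controls. Value is the normalised response at dose 1.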

[21] = system: DU-4475; assay: as above
Protocol: as §2

[22] = system: MDA-MB-468; assay: as above
Protocol: as §2

[23] = system: Hs578T; assay: as above
Protocol: as §2

[24] = system: HCC1599; assay: as above
Protocol: as §2

[25] = system: MFM-223; assay: as above
Protocol: as §2

[26] = system: HCC1143; assay: as above
Protocol: as §2

[27] = system: MDA-MB-231; assay: as above
Protocol: as §2

[28] = system: CAL-120; assay: as above
Protocol: as §2

[29] = system: CAL-85-1; assay: as above
Protocol: as §2

[30] = system: SK-BR-3; assay: as above
Protocol: as §2

[31] = system: BT-549; assay: as above
Protocol: as §2

[32] = system: HCC1937; assay: as above
Protocol: as §2

[33] = system: BT-474; assay: as above
Protocol: as §2

[34] = system: CAL-148; assay: as above
Protocol: as §2

[35] = system: MDA-MB-453; assay: as above
Protocol: as §2

[36] = system: HDQ-P1; assay: as above
Protocol: as §2

[37] = system: MDA-MB-436; assay: as above
Protocol: as §2

SMILES | normalised response [1] | normalised response [2] | normalised response [3] | normalised response [4] | normalised response [5] | normalised response [6] | normalised response [7] | normalised response [8] | normalised response [9] | normalised response [10] | normalised response [11] | normalised response [12] | normalised response [13] | normalised response [14] | normalised response [15] | normalised response [16] | normalised response [17] | normalised response [18] | normalised response [19] | normalised viability [20] | normalised viability [21] | normalised viability [22] | normalised viability [23] | normalised viability [24] | normalised viability [25] | normalised viability [26] | normalised viability [27] | normalised viability [28] | normalised viability [29] | normalised viability [30] | normalised viability [31] | normalised viability [32] | normalised viability [33] | normalised viability [34] | normalised viability [35] | normalised viability [36] | normalised viability [37]
N#Cc1ccc(COC[C@H]2O[C@@H](n3c(NCc4ccc(Cl)c(Cl)c4)nc4c(N)ncnc43)[C@H](O)[C@@H]2O)cc1 (1 nM) | 78.2% | 99.1% | 107% | 101% | 110% | 107% | 108% | 107% | 108% | 104% | 109% | 99.8% | 103% | 109% | 110% | 112% | 108% | 104% | 112% | 111% | 111% | 95.5% | 92.8% | 109% | 92.5% | 99.9% | 102% | 101% | 98.4% | 91.4% | 105% | 84.1% | 116% | 111% | 110% | 118% | 110%
COc1cc(OC2CCN(C)CC2)ccc1Nc1ncc2c(n1)n(C1CCCC1)c(=O)n2C [AZ 3146] (1 nM) | 101% | 90.9% | 101% | 93.7% | 125% | 98.2% | 98.9% | 102% | 105% | 99.7% | 98.3% | 107% | 95.9% | 95.5% | 101% | 112% | 98.4% | 85.8% | 94.2% | 92.4% | 98.8% | 105% | 89.2% | 126% | 109% | 128% | 92.2% | 116% | 114% | 107% | 84.3% | 95.2% | 98.9% | 109% | 94.3% | 88.3% | 103%
NC(=O)c1ccc(I)c([N+](=O)[O-])c1 [Iniparib] (1 nM) | 128% | 93.8% | 94.8% | 90.9% | 101% | 84.2% | 87.8% | 90.9% | 96.5% | 94.6% | 76.7% | 108% | 93.5% | 83.2% | 83.8% | 86.2% | 92.5% | 87.1% | 77.3% | 95% | 87.6% | 99.1% | 116% | 87.8% | 103% | 97.1% | 98.9% | 85.1% | 86% | 92.1% | 113% | 130% | 92.8% | 93.2% | 94.5% | 104% | 108%
c1ccc2c(CCNc3ccc(Nc4ccncc4)cc3)c[nH]c2c1 [Serdemetan] (1 nM) | 114% | 95.7% | 98.8% | 99.2% | 115% | 98.8% | 98.5% | 97.1% | 96.8% | 101% | 104% | 102% | 93.9% | 93.8% | 91% | 112% | 96.7% | 86.4% | 86.1% | 110% | 95.2% | 105% | 97.5% | 92.4% | 82.8% | 86.3% | 98.5% | 79% | 85.3% | 95% | 106% | 95.9% | 99.8% | 107% | 99.2% | 99.9% | 104%
